Assay results published in ChEMBL document CHEMBL3044912, “Nematicidal efficacy of isothiocyanates against root-knot nematode Meloidogyne javanica in cucumber” (2011).
In brackets after ≈: the same amount, converted by molar mass. Activity calls are given as the source filed them. The calls are words filed in the database; no cut-off is given here.

Columns and labels:
Meloidogyne javanica [1] = test: Nematicidal activity against Meloidogyne javanica J2 (root-knot nematode) assessed as mortality rate at 5 ug/mL (vapor concentration in the air, weight/volume) at 25 +/- 2 degC measured after 48 hr; format: functional
Meloidogyne javanica [2] = test: Nematicidal activity against Meloidogyne javanica J2 (root-knot nematode) assessed as mortality rate at 5 ug/mL (vapor concentration in the air, weight/volume) at 25 +/- 2 degC measured after 72 hr; format: functional
Meloidogyne javanica [3] = test: Nematicidal activity against Meloidogyne javanica J2 (root-knot nematode) assessed as mortality rate compound treated as vapor at 25 +/- 2 degC; format: functional; settings: for LC50: Meloidogyne javanica
Meloidogyne javanica [4] = test: Nematicidal activity against Meloidogyne javanica (root-knot nematode) inoculated in cucumber plant assessed as reduction in Meloidogyne javanica (root-knot nematode)numbers at 0.5 to 2 ml/kg of soil dosed 7 days before planting by pot experiment; format: functional, organism-based
Meloidogyne javanica [5] = test: Nematicidal activity against Meloidogyne javanica (root-knot nematode) inoculated in cucumber plant assessed as reduction in galls at 2 ml/kg of soil dosed 7 days before planting by pot experiment; format: functional, organism-based
Meloidogyne javanica [6] = test: Nematicidal activity against Meloidogyne javanica (root-knot nematode) inoculated in cucumber plant assessed as reduction in galls at 0.5 ml/kg of soil dosed 7 days before planting by pot experiment; format: functional, organism-based
Meloidogyne javanica [7] = test: Nematicidal activity against Meloidogyne javanica (root-knot nematode) infected in cucumber field assessed as reduction in root gallling at 2 kg/ha by field plot experiment; format: functional, organism-based
Meloidogyne javanica [8] = test: Nematicidal activity against Meloidogyne javanica (root-knot nematode) inoculated in cucumber plant assessed as reduction in galls compound treated in soil 7 days before planting by pot experiment; format: functional
Meloidogyne javanica [9] = test: Nematicidal activity against Meloidogyne javanica (root-knot nematode) inoculated in cucumber plant assessed as reduction in galls at 1 ml/kg of soil dosed 7 days before planting by pot experiment; format: functional, organism-based
Meloidogyne javanica [10] = test: Nematicidal activity against Meloidogyne javanica (root-knot nematode) infected in cucumber field assessed as reduction in root gallling at 5 kg/ha by field plot experiment; format: functional, organism-based

Compound	mortality at 5 µg/mL (Meloidogyne javanica [1])	mortality at 5 µg/mL (Meloidogyne javanica [2])	LC90 (Meloidogyne javanica [3])	LC50 (Meloidogyne javanica [3])	inhibition (Meloidogyne javanica [4])	Activity (Meloidogyne javanica [5])	Activity (Meloidogyne javanica [6])	inhibition (Meloidogyne javanica [7])	LD50 (Meloidogyne javanica [8])	Activity (Meloidogyne javanica [9])	inhibition (Meloidogyne javanica [10])
S=C=Nc1ccccc1 [PHENYLISOTHIOCYANATE]	25.6%	58.2%									
CC(C)N=C=S [ISOPROPYL ISOTHIOCYANATE]	22.6%	42.9%									
CC(C)/C=C/N=C=S [ISOAMYLENE ISOTHIOCYANATE]	27.4%	56.9%									
CC(N=C=S)c1ccccc1 (centres undefined) [1-PHENYLETHYL ISOTHIOCYANATE]	58.6%	76.6%	8.14 µg/mL (≈ 49.9 µM)	4.24 µg/mL (≈ 26 µM)							
CCN=C=S [ETHYL ISOTHIOCYANATE]	66.9%	88.2%	5.72 µg/mL (≈ 65.6 µM)	3.05 µg/mL (≈ 35 µM)							
CC/C=C/N=C=S [BUTENYL ISOTHIOCYANATE]	20.6%	49.9%									
C=CC(=O)N=C=S [ACRYLOYL ISOTHIOCYANATE]	71%	92.1%	4.63 µg/mL (≈ 40.9 µM)	2.53 µg/mL (≈ 22.4 µM)	Active	Active	Active	Active	0.48 mL	Active	
CCCCN=C=S [BUTYL ISOTHIOCYANATE]	28.1%	58.6%									
N#CSCc1ccccc1 [BENZYL THIOCYANATE]	30.1%	66.4%	8.71 µg/mL (≈ 58.4 µM)	4.64 µg/mL (≈ 31.1 µM)							
C=CCN=C=S [ALLYL ISOTHIOCYANATE]	70.1%	90.5%	4.94 µg/mL (≈ 49.8 µM)	2.76 µg/mL (≈ 27.8 µM)	Active	Active	Active	Active	0.49 mL	Active	
CCCN=C=S [PROPYL ISOTHIOCYANATE]	21.5%	40.2%									
S=C=NCc1ccccc1 [BENZYL ISOTHIOCYANATE]	32.2%	70.2%	8.55 µg/mL (≈ 57.3 µM)	4.48 µg/mL (≈ 30 µM)							
CC(C)CC(=O)N=C=S [ISOVALERYL ISOTHIOCYANATE]	26.4%	58.5%									
S=C=NCCc1ccccc1 [PHENETHYLISOTHIOCYANATE]	60.8%	79.6%	6.96 µg/mL (≈ 42.6 µM)	4.15 µg/mL (≈ 25.4 µM)							
CNC(=S)[S-].[Na+] [METAM SODIUM]	72.2%	93.4%	3.65 µg/mL	2.12 µg/mL							Active
